# Data as given in patent US10106853B2, “CUL4B as predictive biomarker for cancer treatment” (CORNELL UNIVERSITY, priority 2012, dated 2018).
# Where two headings read alike, the source gives them in different places.
# What was measured:
# [1] = tested on: BT474 xenograft tumors; format: in vivo, athymic Nu/J nude mice; conditions: for Xenograft tumor growth under topotecan treatment: topotecan i.p. 5 mg/g every fourth day
# Experimental: (§1) FIG. 5. CUL4B inactivation sensitized BT474 xenograft tumors to topotecan. Stable TGL-BT474 cells (BT474 cells stably expressing GFP-luciferase reporter) were established by retroviral transduction and FACS sorting. The resulting TGL-BT474 cells were infected with recombinant lentiviruses expressing non-targeting shCtrl, shCUL4A or shCUL4B, followed by selection of infected cells with 4 μg/ml puromycine for one week. A) Knockdown of endogenous CUL4A and 4B were verified by immunoblotting. B, C) 1×10^7 of control, CUL4A^k/d, or CUL4B^k/d TGL-BT474 cells were injected subcutaneously in the right flank of each athymic Nu/J nude mice, treated (i.p.) with toptoecan at a dose of 5 mg/g on every 4th day, and tumor burden was measure by bioluminescent imaging. Statistical significance in tumor burden between control and CUL4A^k/d or CUL4B^k/d xenograph are assessed by a two-tailed unpaired student t-test (***: p<0.001). D) Growth rate of control, CUL4A^k/d and CUL4B^k/d BT474 cells in vitro. The same number of control, CUL4A^k/d and CUL4B^k/d BT474 cells were seeded to 96-well plates and cell proliferation was measured using the XTT Cell Proliferation Assay Kit. The data represent the mean value of fold change of cells. Bars indicate the S.E. of six independent experiments. Statistical significance in cellular rate between control cells and CUL4A^k/d or CUL4B^k/d cells are assessed by student's t-test. E-F) Growth rate of control, CUL4A^k/d and CUL4B^k/d TGL-BT474 xenograft in vivo. 1×10^7 of control, CUL4A^k/d or CUL4B^k/d TGL-BT474 cells were injected subcutaneously in the right flank of each mouse of athymic Nu/J nude mice, and tumor burden was measured by bioluminescent imaging (E). On the 22nd day, tumors were collected, and the weight of exercised tumors was measured after mice were sacrificed (F).
# The effect of CUL4B knockdown on an organism's response to CPT treatment was tested in vivo by examining the sensitivity of BT474-CUL4B^k/d, BT474-CUL4A^k/d and control BT474 xenograft tumors to topotecan treatment. Topotecan, (S)-10-[(dimethylamino)methyl]-4-ethyl-4,9-dihydroxy-1H-pyrano[3′,4′:6,7]indolizino[1,2-b]quinoline-3,14(4H,12H)-dione monohydrochloride, is an FDA-approved Top1-directed chemotherapy for the treatment of ovarian, cervical and small cell lung cancer, under the trade name Hycamtin™. Nude mice bearing BT474 xenografts on dorsal skin were treated with topotecan every four (4) days for a period of 44 days. Prior to topotecan administration, the size of the xenograft tumors were identical (FIG. 5). Topotecan was then administered via intraperitoneal injection, and tumor mass was monitors by bioluminescent imaging in four day intervals. […] To rule out the possibility that the growth rate of xenografts were altered during the CUL4B inactivation process (treatment with shRNA) the tumor mass of the three xenograft groups were measured in the absence of topotecan treatment and the weight of the exercised xenograft tumors were analyzed.
# Six week old Female athymic Nu/J nude mice were purchased from Jackson Labs. Mice were housed in laminar air-flow cabinets under specific pathogen-free conditions. Nude mice were inoculated with 0.36 mg 60-day-release 17-b-estradiol pellets (Innovative Research) 24 to 48 hours before implantation of BT-474 cells. 1×10^7 BT-474 cells in 50 ul DMEM medium and 300 ul diluted BD Matrigel™ Basement Membrane Matrix (BD Bioscience, Matrix: PBS is 2:1) were injected subcutaneously in the right flank of each mouse. Tumors were detected once every four days by an IVIS Imaging System (Caliper Life Sciences). When tumors were available to be detected, mice were initially treated with topotecan. Topotecan was administered intraperitoneally on every fourth day from the initiation of therapy at doses of 5 mg/g.
# The IVIS Imaging System (Caliper life sciences) was used for bioluminescent image acquisition and analysis. […]
# [2] = molecular target: T1, Top1 (Homo sapiens, UniProt P11387); test: CPT-induced TOP1 down regulation assay (immunoblotting); format: cell-based; conditions: BT474 cells, lentiviral shRNA; CPT 50 μM, 1 to 1.5 hr
# T1 construct: CPT-induced TOP1 degradation in breast cancer cell lines; host or cells: human breast cancer cell lines BT474, BT20, MCF-7, MDA-MB-231, T47D, Sk-Br-3 (MCF-10A as control)
# T1 sequence (P11387 1-765): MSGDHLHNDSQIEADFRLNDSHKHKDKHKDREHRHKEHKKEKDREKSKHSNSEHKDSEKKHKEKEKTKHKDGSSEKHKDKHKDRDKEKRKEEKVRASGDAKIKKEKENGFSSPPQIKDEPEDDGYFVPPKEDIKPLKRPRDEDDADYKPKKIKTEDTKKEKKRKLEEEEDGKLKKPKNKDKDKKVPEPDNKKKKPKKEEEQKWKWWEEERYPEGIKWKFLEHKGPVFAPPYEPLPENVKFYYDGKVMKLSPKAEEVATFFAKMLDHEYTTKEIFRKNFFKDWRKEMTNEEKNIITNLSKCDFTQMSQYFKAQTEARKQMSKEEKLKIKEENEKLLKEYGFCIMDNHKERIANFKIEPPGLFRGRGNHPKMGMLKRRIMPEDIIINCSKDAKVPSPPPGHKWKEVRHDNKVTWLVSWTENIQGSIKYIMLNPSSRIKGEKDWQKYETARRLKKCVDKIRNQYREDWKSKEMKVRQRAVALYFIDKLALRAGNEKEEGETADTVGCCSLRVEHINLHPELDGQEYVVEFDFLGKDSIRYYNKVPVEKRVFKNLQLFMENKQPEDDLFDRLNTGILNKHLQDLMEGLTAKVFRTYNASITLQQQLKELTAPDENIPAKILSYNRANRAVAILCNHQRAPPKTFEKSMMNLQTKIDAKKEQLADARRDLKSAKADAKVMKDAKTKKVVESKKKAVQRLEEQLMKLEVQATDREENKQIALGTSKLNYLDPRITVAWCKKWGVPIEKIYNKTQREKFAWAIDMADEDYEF
# Experimental: FIG. 1. CPT-induced TOP1 degradation in breast cancer cell lines. A) Expression of endogenous CUL4A and 4B in breast cancer cell lines. Total cell lysates were prepared from the indicated breast cancer cell lines and subjected to SDS PAGE and immunoblotting with antibodies against CUL4A, 4B and α-tubulin. The non-cancerous MCF-10A cell line was used as a control for comparison. B) CPT-induced TOP1 degradation in breast cancer cell lines. Cells were treated with 12.5 μM CPT or 1% DMSO for 4 hours, replenished with CPT-free fresh medium and incubated at 37° C. for 30 minutes to reverse the formation of TOP1 cleavable complex. Cells were then lysed and immunoblotted with the TOP1 and α-tubulin antibodies.
# FIG. 2. CUL4B interacted with Top1 and induced Top1 degradation in the presence of CPT. A) Knockdown of CUL4B impaired CPT-induced Top1 degradation. BT474 cells were infected with lentiviral shCUL4B, shCUL4A or control non-targeting shRNA, and selected for stable CUL4B^k/d or CUL4A^k/d cells upon treatment with puromycin. Following treatment with CPT (50 μM) for 1 hour, cells were replenished with CPT-free fresh medium and incubated at 37° C. for 30 minutes. Top1 degradation was assessed by immunoblotting with an anti-Top1 antibody. Levels of α-tubulin were measured as a loading control. B) Association of CUL4B with Top1 following CPT treatment. BT474 cells were treated with proteosome inhibitor MG132 (15 μM) for 3 hours, and were subjected to crosslinking with 0.2 mM Dithiobis[succinimidyl propionate](DSP) for the last 30 min at room temperature. Cell lysates were prepared, and immunoprecipitated with the anti-Top1 or anti-CUL4B antibodies, and then immunoblotted using antibodies against CUL4B or Top1, respectively. IgG immunoprecipitates served as the negative control. C) Knockdown of CUL4B using a second shCUL4B-2 impaired CPT-induced Top1 degradation. BT474 cells were infected with lentiviral shCUL4B-2, shCUL4A-2 or control non-targeting shRNA and selected for stable CUL4B^k/d or CUL4A^k/d cells upon treatment with puromycin. Following treatment with CPT (50 μM) for 1.5 hr, cells were replenished with CPT-free fresh medium and incubated at 37° C. for 30 min. Top1 degradation was assessed by immunoblotting with the anti-Top1 antibody. Levels of α-tubulin were measured as a loading control. D) CUL4B inactivation sensitized BT474 cells to cytotoxic killing by camptothecin. BT474, BT474-CUL4A^k/d or BT474-CUL4B^k/d cells were synchronized with 1 μM nocodazole for 13 hours released in fresh medium, treated with the indicated concentrations of CPT for three days, and subjected to the XTT assay to measure the cytotoxic responses to CPT. […] The bars indicate the S.E. of six independent experiments. Statistical significance in cellular response to CPT between control BT474 cells and CUL4A^k/d or CUL4B^k/d cells were assessed by a two-tailed unpaired student t-test (***: p<0.001). The same results were obtained with a second lentiviral shRNA for CUL4A and CUL4B, as well as in T47D breast cancer cells. E, F) Knockdown of CUL4B increased the sensitivity of T47D cells to camptothecin. […] Statistical significance in cellular response to camptothecin between control cells and CUL4A^k/d or CUL4B^k/d BT474 cells are assessed by student's t-test.
# CPT-induced Top1 degradation was monitored by immunoblotting of the alkaline lysates. […]
# [3] = tested on: BT474 cells; test: XTT Cell Proliferation Assay, growth rate of BT474 cells in vitro; format: cell-based, Human; conditions: knockdown cells vs control, no drug
# Experimental: as §1, with “B, C) 1×10^7 of control, CUL4A^k/d, or CUL4B^k/d TGL-BT474 cells were injected subcutaneously in the right flank of each athymic Nu/J nude mice, treated (i.p.) with toptoecan at a dose of 5 mg/g on every 4th day, and tumor burden was measure by bioluminescent imaging.” left out, “D) Growth rate of control, CUL4A^k/d and CUL4B^k/d BT474 cells in vitro.” left out, “The data represent the mean value of fold change of cells. Bars indicate the S.E. of six independent experiments.” left out, “E-F) Growth rate of control, CUL4A^k/d and CUL4B^k/d TGL-BT474 xenograft in vivo.” left out
molecule,measurement,setting,value
"CC[C@@]1(O)C(=O)OCc2c1cc1n(c2=O)Cc2cc3c(CN(C)C)c(O)ccc3nc2-1.Cl [topotecan, (S)-10-[(dimethylamino)methyl]-4-ethyl-4,9-dihydroxy-1H-pyrano[3′,4′:6,7]indolizino[1,2-b]quinoline-3,14(4H,12H)-dione monohydrochloride]",Xenograft tumor growth under topotecan treatment,"[1]; BT474-CUL4A k/d xenografts, 44 days",continue to grow
same,Xenograft tumor growth under topotecan treatment,[1]; BT474-CUL4B k/d xenografts vs control and CUL4A k/d groups (p<0.001),largely attenuated
same,Xenograft tumor growth under topotecan treatment,"[1]; control BT474 xenografts, 44 days",continue to grow
same,Size of control and shCUL4A xenografts relative to shCUL4B xenografts,[1]; final day of topotecan treatment,5 fold
same,Detection of xenografts by bioluminescent imaging,"[1]; several shCUL4B xenografts, final day of topotecan treatment",not detectable
shCUL4B-2: second lentiviral shRNA CUL4B sequence purchased from Sigma Aldrich (CCGGGCAATTCTTCAGAAAGGTTTACTCGAGTAAACCTTTCTGAAGAATTGCTTTTT),Effect of shRNA knockdown on CPT-induced Top1 degradation,[2],impaired
shCUL4A: lentiviral shRNA CUL4A sequence purchased from Sigma Aldrich (CCGGGCAGAACTGATCGCAAAGCATCTCGAGATGCTTTGCGATCAGTTCTGCTTTTT),Growth rate of xenografts vs control,"[1]; without topotecan administration, tumor burden and excised tumor weight",no significant difference
same,Growth rate of cultured BT474 cells in vitro,[3],reduced the growth rate slightly
